From patent US20240224999A1, “METABOLIC INHIBITORS FOR CONTROLLING BIOFILM” (MC (US) 3 LLC, priority 2021, published 2024)
“Also recorded” adds a separate entry of the source.

Columns and labels:
[1] = system: Desulfovibrio vulgaris 29579; assay: MBEC biofilm efficacy, Log (Growth) by enumeration; assay type: cell-based; details: testing time 2 days
Description: (§1) Strains of commonly found bacteria were used for testing the efficacy of the compounds, viz. Desulfovibrio alaskensis and Desulfovibrio vulgaris. Media for the cultures was also prepared by using a standard method. The cultures were aseptically used and incubated under anaerobic conditions. They were plated with an MBEC (minimal biofilm eradication concentration) lid, to allow for biofilm growth. […] Then the plates were rinsed, sonicated and enumerated. These enumerations were grown for 5-days for the readings.
(§2) A lyophilized Desulfovibrio alaskensis 14563, Desulfovibrio vulgaris 29579 pure cultures received from ATCC were resuspended individually in 500 ul of MB 1250. Aseptically, the content was transferred to a 5-mL tube of MB1250 medium. The cultures were incubated in an anaerobic chamber at 30° C. for 72 hrs. Subsequently, an individual stock culture with a final concentration of 25% glycerol were prepared by adding equal volumes of culture and 50% glycerol. 1 ml of the cultures were then transferred to 2-ml cryogenic vials and stored at −80° C. The purity of the stock cultures was evaluated through PCR, by amplifying the 16S rDNA region, and thus, it was verified that the original ATCC sample was a pure culture.
(§3) 48-hour cultures of ATCC Desulfovibrio alaskensis 14563 and Desulfovibrio vulgaris 29579 were prepared in an anaerobic chamber. Each culture was prepared as a 1:10 culture by taking 1 milliliter (mL) of a pure culture and inoculating 9 milliliters (mL) of fresh SRB2-LA media. Prepared cultures were incubated at 30° C. and further diluted 1:100 in SRB2-LA media after incubation. They were grown for another 24 hours then diluted 1:10. The 1:10 dilution was plated with an MBEC (minimal biofilm eradication concentration) lid, which would allow for biofilm growth.
(§4) Treatment plates were prepared by adding 180 μL of fresh phosphate buffer amended with 10% SRB2-LA media to each well. These wells were then dosed with the compounds of interest with a ppm range of 200 to 1 PPM. Edge wells were not used due to their inherent variability and evaporation of the media. Each experiment was done with at least three replicates for different treatments and non-treatment controls. After incubation of the MBEC plate, the MBEC lid was removed and added to a rinse plate containing phosphate buffer and 10% SRB2-LA. The lid was rinsed for 30 seconds then added to the treatment plate. The MBEC lids had 6 hours to 3 days of exposure time. After targeted exposure time, the plates were rinsed, sonicated, and enumerated. The rinse was done for 30 seconds in 10% SRB2-LA with phosphate buffer. Following the rinse, the lid was added to a plate with the same media and buffer mix and the plate was sonicated for 5 minutes. After five minutes, the lid was discarded, and each row of the plate was enumerated. These enumerations were grown for 5 days before being read.

[2] = system: Desulfovibrio alaskensis 14563; assay: MBEC biofilm efficacy, Log (Growth) by enumeration; assay type: cell-based; details: for Log (Growth): biofilm; for efficacy in controlling biofilm formation (in words): tested individually, standard temperature and pressure
Description: as §1, §2, §3, §4

For `O=C(CN1C(=O)c2cccc3cccc(c23)C1=O)NO` [Compound C1], the “Log (Growth)” value ([1]; 5 PPM) was 4, the “Log (Growth)” value ([1]; 25 PPM) was 1 and the “Log (Growth)” value ([1]; 50 PPM) was 1. For the same molecule, the “Log (Growth)” value ([1]; 100 PPM) was 0, the “Log (Growth)” value ([1]; 200 PPM) was 1 and the “Log (Growth)” value ([2]; testing time 6 hours, 1 PPM) was 4. For the same molecule, the “Log (Growth)” value ([2]; testing time 6 hours, 5 PPM) was 2, the “Log (Growth)” value ([2]; testing time 6 hours, 10 PPM) was 1 and the “Log (Growth)” value ([2]; testing time 6 hours, 25 PPM) was 1. The “Log (Growth)” value ([2]; testing time 6 hours, 50 PPM) was 1, the “Log (Growth)” value ([2]; testing time 18 hours, 1 PPM) was 1 and the “Log (Growth)” value ([2]; testing time 18 hours, 5 PPM) was 0. The “Log (Growth)” value ([2]; testing time 18 hours, 10 PPM) was 0, the “Log (Growth)” value ([2]; testing time 18 hours, 25 PPM) was 0 and the “Log (Growth)” value ([2]; testing time 18 hours, 50 PPM) was 0. For the same molecule, the “Log (Growth)” value ([2]; testing time 2 days, 1 PPM) was 0, the “Log (Growth)” value ([2]; testing time 2 days, 2.5 PPM) was 0 and the “Log (Growth)” value ([2]; testing time 2 days, 10 PPM) was 0. The “Log (Growth)” value ([2]; testing time 2 days, 15 PPM) was 0, the “Log (Growth)” value ([2]; testing time 2 days, 20 PPM) was 0 and the “Log (Growth)” value ([2]; testing time 2 days, 25 PPM) was 0. The “Log (Growth)” value ([2]; testing time 2 days, 40 PPM) was 0, the “Log (Growth)” value ([2]; testing time 2 days, 50 PPM) was 0 and the “Log (Growth)” value ([2]; testing time 3 days, 50 PPM) was 0. For the same molecule, the “Log (Growth)” value ([2]; testing time 3 days, 100 PPM) was 0, the “Log (Growth)” value ([2]; testing time 3 days, 200 PPM) was 0 and the “killing of the microorganism strain Desulfovibrio alaskensis (in words)” value ([2]; comparative testing against two commercial products, metabolic inhibition) was “completely killing”. The “efficacy in controlling biofilm formation (in words)” value (“efficacy” below) [2] was “significant activity in controlling biofilms; also recorded: highest efficacy”.

`O=C(CCCN1C(=O)c2cccc3cccc(c23)C1=O)NO` [Compound C12] was tested, and the “Log (Growth)” value ([2]; testing time 2 days, 5 PPM) was 1, the “Log (Growth)” value ([2]; testing time 2 days, 25 PPM) was 0 and the “Log (Growth)” value ([2]; testing time 2 days, 50 PPM) was 1. The “Log (Growth)” value ([2]; testing time 2 days, 100 PPM) was 0.3, the “Log (Growth)” value ([2]; testing time 2 days, 200 PPM) was 0 and the “efficacy” value [2] was “significant activity in controlling biofilms; also recorded: exhibited efficacy”.

`CCCCCCCC(=O)NO` [Compound C16] was tested, and the “Log (Growth)” value ([2]; testing time 2 days, 5 PPM) was 5, the “Log (Growth)” value ([2]; testing time 2 days, 25 PPM) was 5 and the “Log (Growth)” value ([2]; testing time 2 days, 50 PPM) was 3. The “Log (Growth)” value ([2]; testing time 2 days, 100 PPM) was 1, the “Log (Growth)” value ([2]; testing time 2 days, 200 PPM) was 0 and the “efficacy” value [2] was “significant activity in controlling biofilms; also recorded: exhibited efficacy”.
